Earlier results, collected in patent US20140161876A1, “LIPOSOME-CONTAINING PREPARATION UTILIZING DISSOLUTION AID, AND METHOD FOR PRODUCING SAME” (KONICA MINOLTA, INC., priority 2011, published 2014).
Converted amounts (≈) assume the structure as drawn.

Conditions: drug encapsulated, Tables 3 and 4

For `Nc1nc(=O)c2c([nH]1)NC[C@H](CNc1ccc(C(=O)N[C@@H](CCC(=O)O)C(=O)O)cc1)N2C=O` [levofolinate], the Solubility in water is listed as 20 mg/mL (≈ 42.2 mM).

In the case of `COc1cc([C@@H]2c3cc4c(cc3[C@@H](O[C@@H]3O[C@@H]5CO[C@@H](C)O[C@H]5[C@H](O)[C@H]3O)[C@H]3COC(=O)[C@H]23)OCO4)cc(OC)c1O` [etoposide], the Solubility in water is given as 0.5 mg/mL (≈ 0.85 mM).
